Assay results: publication PMC5691054, “An unexpected protein interaction promotes drug resistance in leukemia” (Nature Communications, 2017)
Entries after “also recorded” stand apart in the source; their conditions may differ. Where two headings read alike, the source gives them in different places.

Legend:
[1] = tested on: Meg01 cells; test: 6MP cytotoxicity in Meg01 cells; assay type: cell-based, Human; settings: Antimycin A 10 nM, in words
Description: (§1) HEK293 cells transfected with ABCC4 or ABCC4ΔC in the presence or absence of MPP1, MO7e, and Meg01 cells were treated with 10 concentrations of 6MP, ranging from 1 to 1000 µM, for 96 h. Cell viability analysis was determined using CellTiter Glo (Promega). Where applicable, cell penetrating peptides conjugated to the PDZ-binding motif of ABCC4 (labeled either ABCC4-PDZ or ABCC4ΔC) were added to the cells at 20 μM. Media was changed daily and new ABCC4-PDZ/ABCC4ΔC peptide and 6MP was added. IC50 values were calculated using GraphPad Prism.
(§2) The Meg01, MO7e, and ABCC4 KO MO7e cell lines were plated at 1500 cells per well in a 96-well plate. Cells were treated with 10 concentrations of Antimycin A (Santa Cruz) ranging from 0.01 to 1000 μM. Cell viability was determined using CellTiter Glo (Promega). Meg01, MO7e, and ABCC4 KO MO7e cells in the presence or absence of 10 nM Antimycin A were treated with 10 concentrations of 6MP, ranging from 1 to 1000 µM, for 96 h. Cell viability analysis was determined using CellTiter Glo. IC50 values were calculated using GraphPad Prism.

[2] = tested on: primary AML cells from adult patients; test: Annexin V/PI apoptosis in primary AML patient samples; assay type: cell-based, Human; settings: 50 or 100 µM cytarabine + 10 nM Antimycin A 4 h, then 44 h ± Antimycin A; triplicates; in words
Description: Primary AML cells from adult patients were treated with either vehicle, 50 or 100 µM cytarabine, 10 nM Antimycin A, or the combination of 50 or 100 µM cytarabine + 10 nM Antimycin A for 4 h. Post treatment, the cells were washed with fresh media (2×) and resuspended in the absence or presence of 10 nM Antimycin A and cultured for an additional 44 h (for a total treatment time of 48 h). The cells were then stained with Annexin V-fluorescein isothiocyanate (FITC)/propidium iodide (PI) apoptosis Kit (Beckman Coulter; Brea, CA, USA). The stage of apoptotic cells (Annexin V-positive, but early or late apoptosis) is identified by the proportion of AnnexinV+/PI− (early apoptosis) and Annexin V+/PI+ (late apoptosis) cells. This experiment was performed once in triplicates (presented as average ± SEM) due to the limited sample availability. Patient samples were selected based on the availability of an adequate number of cells to perform the assay.

[3] = tested on: MO7e cells; test: 6MP cytotoxicity in MO7e cells and CRISPR knock-outs; assay type: cell-based, Human; settings: MO7e vs. ABCC4 KO; Antimycin A 10 nM, in words
Description: as §1
CRISPR-Cas9 plasmids containing gRNAs against ABCC4 ([…]) and MPP1 ([…]) were purchased from Sigma Aldrich. MO7e cells were transiently transfected with constructs containing the gRNA, Cas9 Nickase, and a flurophore. Forty-eight hours after transfection, cells were sorted for fluorescent positive cells and single cells were sorted into individual wells of a 96-well plate. Single-sorted cells were allowed to expand and deletion of the gene of interest was verified by immunoblotting.
as §2

[4] = target: T1, ABCC4-PDZ motif and MPP1 interaction (Homo sapiens, UniProt O15439+Q00013); test: biochemical; settings: for IC50: 10 concentrations 3.5 nM to 70 μM
T1 sequence (Q00013 1-466): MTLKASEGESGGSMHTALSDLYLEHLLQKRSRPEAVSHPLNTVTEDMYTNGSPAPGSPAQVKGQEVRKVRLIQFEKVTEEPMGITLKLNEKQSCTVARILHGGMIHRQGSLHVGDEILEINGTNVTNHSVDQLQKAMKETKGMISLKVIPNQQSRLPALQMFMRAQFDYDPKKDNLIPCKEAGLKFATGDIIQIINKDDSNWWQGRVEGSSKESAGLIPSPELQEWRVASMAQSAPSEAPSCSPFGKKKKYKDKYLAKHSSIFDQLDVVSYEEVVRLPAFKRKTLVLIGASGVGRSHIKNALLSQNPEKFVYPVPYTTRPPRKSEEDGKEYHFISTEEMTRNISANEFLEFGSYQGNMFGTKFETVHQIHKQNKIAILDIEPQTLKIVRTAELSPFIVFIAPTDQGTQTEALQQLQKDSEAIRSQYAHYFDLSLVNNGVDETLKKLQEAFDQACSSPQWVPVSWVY
T1 sequence (O15439 1301-1325): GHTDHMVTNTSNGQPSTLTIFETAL

[5] = tested on: ABCC4 at the plasma membrane; test: Surface biotinylation of ABCC4; assay type: cell-based; settings: Antimycin A, Fig. 6f, in words
Description: MO7e, Meg01, or transfected HEK293 cells were treated with trypsin, washed in PBS (pH 8) and incubated with 0.8 mM EZ-Link Sulfo-NHS-SS-Biotin (Pierce) solution for 30 min at room temperature with gentle agitation. Following incubation, the biotin molecules were quenched with 25 mM tris (pH 8) solution containing 0.1 M glycine before cell lysis using MPER (Thermo Scientific) containing a protease inhibitor cocktail (Roche). A volume of 20 µl of the lysate was removed for the total lysate control and the remaining lysate was incubated with avidin-agarose beads (Pierce) for 18 h on a rotatory shaker at 4 °C. The agarose beads attached to cell surface proteins were then separated from the lysate containing cytosolic proteins by centrifugation and the three samples (input, supernatant and pellet) were analyzed by immunoblotting.

[6] = tested on: mitochondrial function of MO7e and ABCC4 KO MO7e cells; test: Mitochondrial function (relative ATP, TMRE, MitoTracker Green); assay type: cell-based, Human; settings: 10 nM
Description: WT and ABCC4 KO MO7e cells were treated with DMSO or 10 nM Antimycin A before incubation with TMRE or MitoTracker Green (Life Technologies) for 15 min. After incubation, cells were analyzed with BD Biosciences flow cytometer and mean fluorescence intensity was calculated. Relative ATP amounts were determined by the CellTiter Glo Assay.

[7] = Antimycin A cytotoxicity in MO7e and ABCC4 KO MO7e cells; assay type: cell-based, Human; settings: human, 0.01 to 1000 μM, CellTiter Glo, triplicate
Description: as §2, with “Meg01, MO7e, and ABCC4 KO MO7e cells in the presence or absence of 10 nM Antimycin A were treated with 10 concentrations of 6MP, ranging from 1 to 1000 µM, for 96 h.” left out

[8] = tested on: MO7e cells; test: as above; assay type: cell-based, Human; settings: MO7e; 6MP 10 μM (sublethal), in words
Description: as §2, with “Meg01, MO7e, and ABCC4 KO MO7e cells in the presence or absence of 10 nM Antimycin A were treated with 10 concentrations of 6MP, ranging from 1 to 1000 µM, for 96 h.” left out

[9] = tested on: mitochondrial complex III; design: method as in PMID 6257713; settings: in words; cited from earlier work
Description: Among the 11,297 chemicals tested, 219 of them (144 unique molecules) had >30% inhibition and were selected for further dose-response analysis using 10 concentrations ranging from 3.5 nM to 70 μM.

CCCCCC[C@H]1C(=O)O[C@H](C)[C@H](NC(=O)c2cccc(NC=O)c2O)C(=O)O[C@@H](C)[C@@H]1OC(=O)CC(C)C [Antimycin A]
effect of Antimycin A on 6MP sensitivity [1]: sensitized to 6MP by Antimycin A (10 nM) | Antimycin A enhancement of cytarabine-induced apoptosis in primary AML samples [2]: Three of the 5 patients; also recorded: enhanced cytarabine cytoxicity in three primary AML patient samples; also recorded: did not show enhancement on cytarabine-induced apoptosis; also recorded: increased Annexin V^+ percentage of cells with combination treatment of Antimycin A and cytarabine vs cytarabine alone | effect of Antimycin A on 6MP sensitivity [3]: shifted the 6MP dose–response curve to the left, but only for cells harboring ABCC4, not ABCC4 KO cells; also recorded: specifically sensitizes ABCC4 expressing MO7e cells, but not ABCC4 KO cells | IC50 ([4]; 500 nM B-ABCC4, 5 nM His-S-MPP1, 0.7% DMSO, read-out: IC50 for complex disruption (TR-FRET)): ~3 nM | IC50 ([4]; figure value, 500 nM B-ABCC4, 5 nM His-S-MPP1, triplicate, read-out: IC50 for disruption of MPP1 and ABCC4 interaction (TR-FRET)): 3.9 nM | TR-FRET dose response / disruption of interaction ([4]; in words): the most potent | surface / plasma membrane ABCC4 [5]: reduces ABCC4 at the plasma membrane | relative ATP ([6]; CellTiter Glo, triplicate): Equal relative | effect on mitochondrial function ([6]; in words): does not selectively affect the mitochondrial; also recorded: minimal effect on mitochondria; also recorded: not exclusively disruptive to mitochondrial function in cells lacking or containing ABCC4 | IC50 ([7]; MO7e ABCC4 KO cells, MO7e ABCC4 KO): 1700 nM | IC50 ([7]; MO7e cells, MO7e): 2200 nM | Antimycin A cytotoxicity in combination with non-cytotoxic 6MP [8]: sensitizes MO7e cells to Antimycin A; also recorded: shifted the Antimycin A survival curve to the left indicating greater toxicity when an ABCC4 substrate was present | mitochondrial complex III inhibition [9]: mitochondrial complex III inhibitor at micromolar concentration
